In one experiment the test system is SD rats. Briefly: Comparison of MC6 (oral, i.v.) with i.v. r-insulin during glucose infusion in SD rats. In kind it is in vivo, rat. As to conditions: 500 μg MC6 i.v. or 150 mU r-insulin i.v. at 60 minutes following glucose infusion, FIG. 5. As to the method:
In the next experiment, orally administered purified fraction MC6 (500 μg) was compared with i.v. injection of insulin (150 mU) in SD rats. Animals were divided into four groups and starved for three hours. Group 1 received PBS only; group 2 was given MC6 orally 60 minutes before glucose infusion; group 3 received 150 mU r-insulin (Humalin-R® of Novo-Nordisk) i.v. at 60 minutes following glucose infusion through jugular vein and group 4 received 500 μg MC6 in 1 ml PBS (i.v.) at 60 minutes following glucose infusion through jugular vein. In all cases, glucose infusion was at 18 mg/min/kg. Blood samples were collected from the carotid artery at different time intervals and quantitative plasma glucose levels were measured […].

The next experiment deals with normal rats. Briefly: Oral glucose tolerance test in normal rats. The conditions noted are these: compared to vehicle treated animals, FIG. 11. The class given is in vivo, rat. The text has this: FIG. 11 represents the hypoglycemic activity of MC6.1 and its derivators, MC6.2 and 6.3 analogs in oral glucose tolerance test in normal rats.

Regarding “r-insulin: r-insulin (Humalin-R of Novo-Nordisk), 150 mU i.v., comparator”, the “hypoglycemic profile, systemic (i.v.) injection” value with SD rats is given as “identical hypoglycemic profile”.
On to “6.3: 7-a.a. derivative of MC6.1: K-T-N-M-K-H-M (SEQ ID NO:03) (KTNMKHM)”, for which the “lowering blood glucose in oral glucose tolerance test” value in the experiment on normal rats is “effective in lowering blood glucose”.

The record behind these values is US6852695B2, “Orally active fraction of momordica charantia, active peptides thereof, and their use in the treatment of diabetes” (Theracos, Inc., priority 1997, dated 2005).
